The OligoGym collection
Oligonucleotides are written 5' to 3', each unit as a sugar letter and its base; * is a phosphorothioate linkage, no mark a phosphodiester; rarer units and linkages stand in square brackets, end groups in braces. Plain capitals give the bases only. d = 2'-deoxy (DNA); r = 2'-OH (RNA)

What follows are substances tested against DENND5A (assay: reporter assay of Huesken 2005). Conditions: siRNA.
Also: test concentration or dose not given here.

**Q.** How did the normalised inhibition (eCFP-eYFP dual reporter) turn out when “sense rGrArGrCrUrGrCrUrCrArCrArUrCrCrCrArGrCdTdT / antisense rGrCrUrGrGrGrArUrGrUrGrArGrCrArGrCrUrCdCdC” was run?
**A.** The normalised inhibition (eCFP-eYFP dual reporter) was 42.6%.

**Q.** “sense rGrArGrGrArUrGrGrCrUrCrUrCrGrGrArCrArUdTdT / antisense rArUrGrUrCrCrGrArGrArGrCrCrArUrCrCrUrCdCdC” was tested. Which normalised inhibition (eCFP-eYFP dual reporter) did it give?
**A.** Its normalised inhibition (eCFP-eYFP dual reporter) is 55.9%.

**Q.** Which normalised inhibition (eCFP-eYFP dual reporter) does the source give for “sense rGrArGrGrUrGrGrArUrGrArGrArGrGrCrCrArUdTdT / antisense rArUrGrGrCrCrUrCrUrCrArUrCrCrArCrCrUrCdAdG” here?
**A.** The normalised inhibition (eCFP-eYFP dual reporter) was 74.4%.

**Q.** Which normalised inhibition (eCFP-eYFP dual reporter) does the source give for “sense rGrArUrCrCrUrArGrUrUrGrGrGrGrArGrCrUrGdTdT / antisense rCrArGrCrUrCrCrCrCrArArCrUrArGrGrArUrCdCdG” here?
**A.** Its normalised inhibition (eCFP-eYFP dual reporter) is 66.6%.

**Q.** “sense rGrArUrGrArGrArGrGrCrCrArUrGrCrCrGrGrAdTdT / antisense rUrCrCrGrGrCrArUrGrGrCrCrUrCrUrCrArUrCdCdA” was tested. Which normalised inhibition (eCFP-eYFP dual reporter) did it give?
**A.** The normalised inhibition (eCFP-eYFP dual reporter) was 63%.

**Q.** Which normalised inhibition (eCFP-eYFP dual reporter) does the source give for “sense rGrArUrGrGrUrGrArArGrArCrArCrUrCrCrUrGdTdT / antisense rCrArGrGrArGrUrGrUrCrUrUrCrArCrCrArUrCdCdT” here?
**A.** The normalised inhibition (eCFP-eYFP dual reporter) was 82.9%.

**Q.** Which normalised inhibition (eCFP-eYFP dual reporter) does the source give for “sense rGrCrArArUrArArGrGrArUrCrUrCrArArArGrUdTdT / antisense rArCrUrUrUrGrArGrArUrCrCrUrUrArUrUrGrCdTdG” here?
**A.** Its normalised inhibition (eCFP-eYFP dual reporter) is 66.2%.

**Q.** For “sense rGrCrArCrUrUrCrCrArUrArArGrCrCrUrGrArGdTdT / antisense rCrUrCrArGrGrCrUrUrArUrGrGrArArGrUrGrCdTdT”, which normalised inhibition (eCFP-eYFP dual reporter) is on record?
**A.** The normalised inhibition (eCFP-eYFP dual reporter) was 78.7%.

**Q.** For “sense rGrCrCrCrGrGrArArCrUrUrCrUrGrCrCrGrArUdTdT / antisense rArUrCrGrGrCrArGrArArGrUrUrCrCrGrGrGrCdTdC”, which normalised inhibition (eCFP-eYFP dual reporter) is on record?
**A.** Its normalised inhibition (eCFP-eYFP dual reporter) is 70.9%.

**Q.** Which normalised inhibition (eCFP-eYFP dual reporter) does the source give for “sense rGrCrUrGrArArGrArGrGrCrUrGrCrGrGrGrCrCdTdT / antisense rGrGrCrCrCrGrCrArGrCrCrUrCrUrUrCrArGrCdTdT” here?
**A.** The normalised inhibition (eCFP-eYFP dual reporter) was 37.4%.

**Q.** With “sense rGrGrArArArArGrUrUrGrGrArArGrUrGrCrGrUdTdT / antisense rArCrGrCrArCrUrUrCrCrArArCrUrUrUrUrCrCdAdG” as the substance, how does the normalised inhibition (eCFP-eYFP dual reporter) read?
**A.** The normalised inhibition (eCFP-eYFP dual reporter) was 60.8%.

**Q.** With “sense rGrGrArCrUrGrGrArCrArCrGrGrArGrArCrCrGdTdT / antisense rCrGrGrUrCrUrCrCrGrUrGrUrCrCrArGrUrCrCdGdC” as the substance, how does the normalised inhibition (eCFP-eYFP dual reporter) read?
**A.** Its normalised inhibition (eCFP-eYFP dual reporter) is 60.4%.

**Q.** Which normalised inhibition (eCFP-eYFP dual reporter) does the source give for “sense rGrGrArGrCrArArCrUrCrCrArCrCrArGrGrCrAdTdT / antisense rUrGrCrCrUrGrGrUrGrGrArGrUrUrGrCrUrCrCdAdG” here?
**A.** The normalised inhibition (eCFP-eYFP dual reporter) was 62.1%.

**Q.** “sense rGrGrCrCrArGrCrCrArGrCrArArCrArArGrUrGdTdT / antisense rCrArCrUrUrGrUrUrGrCrUrGrGrCrUrGrGrCrCdCdA” was tested. Which normalised inhibition (eCFP-eYFP dual reporter) did it give?
**A.** The normalised inhibition (eCFP-eYFP dual reporter) was 73.7%.

**Q.** For “sense rGrGrCrUrArArCrCrUrCrUrGrCrUrUrUrGrUrGdTdT / antisense rCrArCrArArArGrCrArGrArGrGrUrUrArGrCrCdTdC”, which normalised inhibition (eCFP-eYFP dual reporter) is on record?
**A.** Its normalised inhibition (eCFP-eYFP dual reporter) is 70.2%.

**Q.** Which normalised inhibition (eCFP-eYFP dual reporter) does the source give for “sense rGrGrCrUrGrGrCrArUrUrCrArArGrArCrCrCrAdTdT / antisense rUrGrGrGrUrCrUrUrGrArArUrGrCrCrArGrCrCdCdT” here?
**A.** Its normalised inhibition (eCFP-eYFP dual reporter) is 75.8%.

**Q.** Which normalised inhibition (eCFP-eYFP dual reporter) does the source give for “sense rGrGrGrArArArUrCrArGrCrCrUrUrArUrGrGrUdTdT / antisense rArCrCrArUrArArGrGrCrUrGrArUrUrUrCrCrCdCdT” here?
**A.** The normalised inhibition (eCFP-eYFP dual reporter) was 61.1%.

**Q.** “sense rGrGrGrArGrCrCrArGrArGrArUrCrArCrCrUrCdTdT / antisense rGrArGrGrUrGrArUrCrUrCrUrGrGrCrUrCrCrCdAdA” was tested. Which normalised inhibition (eCFP-eYFP dual reporter) did it give?
**A.** Its normalised inhibition (eCFP-eYFP dual reporter) is 49.7%.

**Q.** How did the normalised inhibition (eCFP-eYFP dual reporter) turn out when “sense rGrGrGrCrArUrGrGrArUrGrArUrGrGrArArGrCdTdT / antisense rGrCrUrUrCrCrArUrCrArUrCrCrArUrGrCrCrCdTdT” was run?
**A.** Its normalised inhibition (eCFP-eYFP dual reporter) is 54.4%.

**Q.** For “sense rGrGrUrGrCrCrGrCrUrCrCrCrArCrCrUrCrCrUdTdT / antisense rArGrGrArGrGrUrGrGrGrArGrCrGrGrCrArCrCdTdC”, which normalised inhibition (eCFP-eYFP dual reporter) is on record?
**A.** The normalised inhibition (eCFP-eYFP dual reporter) was 39%.

**Q.** How did the normalised inhibition (eCFP-eYFP dual reporter) turn out when “sense rGrUrGrCrCrArGrArArCrUrUrGrGrGrGrArArGdTdT / antisense rCrUrUrCrCrCrCrArArGrUrUrCrUrGrGrCrArCdTdC” was run?
**A.** The normalised inhibition (eCFP-eYFP dual reporter) was 41.9%.

**Q.** With “sense rGrUrUrUrArGrArUrArArUrGrArCrCrArGrArGdTdT / antisense rCrUrCrUrGrGrUrCrArUrUrArUrCrUrArArArCdGdC” as the substance, how does the normalised inhibition (eCFP-eYFP dual reporter) read?
**A.** The normalised inhibition (eCFP-eYFP dual reporter) was 51.4%.

**Q.** “sense rUrArUrGrArGrGrCrGrUrUrUrGrUrCrArUrCrCdTdT / antisense rGrGrArUrGrArCrArArArCrGrCrCrUrCrArUrAdAdT” was tested. Which normalised inhibition (eCFP-eYFP dual reporter) did it give?
**A.** Its normalised inhibition (eCFP-eYFP dual reporter) is 44.9%.

**Q.** With “sense rUrCrArCrUrGrCrCrArArCrCrCrArUrGrGrArUdTdT / antisense rArUrCrCrArUrGrGrGrUrUrGrGrCrArGrUrGrAdAdC” as the substance, how does the normalised inhibition (eCFP-eYFP dual reporter) read?
**A.** Its normalised inhibition (eCFP-eYFP dual reporter) is 57.8%.

**Q.** With “sense rUrCrArGrUrGrUrGrArUrGrArArGrArArGrArAdTdT / antisense rUrUrCrUrUrCrUrUrCrArUrCrArCrArCrUrGrAdAdC” as the substance, how does the normalised inhibition (eCFP-eYFP dual reporter) read?
**A.** The normalised inhibition (eCFP-eYFP dual reporter) was 75.2%.

**Q.** “sense rUrCrCrCrCrUrUrUrGrCrArUrUrCrCrUrArCrGdTdT / antisense rCrGrUrArGrGrArArUrGrCrArArArGrGrGrGrAdGdC” was tested. Which normalised inhibition (eCFP-eYFP dual reporter) did it give?
**A.** Its normalised inhibition (eCFP-eYFP dual reporter) is 44.7%.

**Q.** How did the normalised inhibition (eCFP-eYFP dual reporter) turn out when “sense rUrCrUrCrCrUrGrCrArUrUrUrCrUrUrArGrArUdTdT / antisense rArUrCrUrArArGrArArArUrGrCrArGrGrArGrAdGdA” was run?
**A.** The normalised inhibition (eCFP-eYFP dual reporter) was 51.3%.

**Q.** For “sense rUrCrUrGrArUrGrUrArCrUrUrUrCrCrArCrUrGdTdT / antisense rCrArGrUrGrGrArArArGrUrArCrArUrCrArGrAdCdT”, which normalised inhibition (eCFP-eYFP dual reporter) is on record?
**A.** Its normalised inhibition (eCFP-eYFP dual reporter) is 47.9%.

**Q.** For “sense rUrCrUrUrGrArUrUrCrArGrArArCrGrUrArGrGdTdT / antisense rCrCrUrArCrGrUrUrCrUrGrArArUrCrArArGrAdAdG”, which normalised inhibition (eCFP-eYFP dual reporter) is on record?
**A.** The normalised inhibition (eCFP-eYFP dual reporter) was 29.1%.

**Q.** How did the normalised inhibition (eCFP-eYFP dual reporter) turn out when “sense rUrCrUrUrUrCrArArUrGrCrCrGrUrCrGrArUrUdTdT / antisense rArArUrCrGrArCrGrGrCrArUrUrGrArArArGrAdCdA” was run?
**A.** Its normalised inhibition (eCFP-eYFP dual reporter) is 52.7%.

**Q.** How did the normalised inhibition (eCFP-eYFP dual reporter) turn out when “sense rUrGrArArGrArGrGrUrGrArCrUrArGrCrArArGdTdT / antisense rCrUrUrGrCrUrArGrUrCrArCrCrUrCrUrUrCrAdTdA” was run?
**A.** The normalised inhibition (eCFP-eYFP dual reporter) was 68.6%.

**Q.** “sense rUrGrArArGrGrArArUrGrCrCrGrCrArArUrArAdTdT / antisense rUrUrArUrUrGrCrGrGrCrArUrUrCrCrUrUrCrAdGdC” was tested. Which normalised inhibition (eCFP-eYFP dual reporter) did it give?
**A.** Its normalised inhibition (eCFP-eYFP dual reporter) is 77.7%.

**Q.** “sense rUrGrArArUrGrUrUrCrGrGrArCrArCrCrUrArCdTdT / antisense rGrUrArGrGrUrGrUrCrCrGrArArCrArUrUrCrAdAdC” was tested. Which normalised inhibition (eCFP-eYFP dual reporter) did it give?
**A.** Its normalised inhibition (eCFP-eYFP dual reporter) is 49%.

**Q.** With “sense rUrGrArUrCrUrCrCrUrGrGrArArArGrGrArUrCdTdT / antisense rGrArUrCrCrUrUrUrCrCrArGrGrArGrArUrCrAdCdA” as the substance, how does the normalised inhibition (eCFP-eYFP dual reporter) read?
**A.** The normalised inhibition (eCFP-eYFP dual reporter) was 44.1%.

**Q.** Which normalised inhibition (eCFP-eYFP dual reporter) does the source give for “sense rUrGrCrArArArArCrUrUrUrGrArUrArArArGrCdTdT / antisense rGrCrUrUrUrArUrCrArArArGrUrUrUrUrGrCrAdTdT” here?
**A.** Its normalised inhibition (eCFP-eYFP dual reporter) is 46%.

**Q.** With “sense rUrGrCrArGrGrArGrUrUrCrArArCrArUrCrArCdTdT / antisense rGrUrGrArUrGrUrUrGrArArCrUrCrCrUrGrCrAdAdT” as the substance, how does the normalised inhibition (eCFP-eYFP dual reporter) read?
**A.** Its normalised inhibition (eCFP-eYFP dual reporter) is 62.5%.

**Q.** Which normalised inhibition (eCFP-eYFP dual reporter) does the source give for “sense rUrGrCrCrCrGrGrCrUrGrCrArArGrCrCrUrUrGdTdT / antisense rCrArArGrGrCrUrUrGrCrArGrCrCrGrGrGrCrAdAdT” here?
**A.** Its normalised inhibition (eCFP-eYFP dual reporter) is 56.4%.
